Legend:
leukemia L1210 cells = test: Leukemia L1210 in mice: ascitic fluid and survival (Example 14); settings: for Accumulation of ascitic (weight gain, %): leukemia L1210
Experimental: (§6) An influence of 7 day course of test article daily administration was studied in respect of tumor progression, which was estimated using the two integral indices: pace of mouse weight gain due to accumulation of ascitic fluid, and by animal mean survival time after inoculation.
(§7) The study was carried out on DBA/2 mice weighing 18-21 g. First, tumor cell passage was performed using 6 animals for each cell line. For this, cells kept at the temperature of the liquid nitrogen were de-frozen and adjusted to the concentration of 5×10^6 cells/mL by sterile Hanks' solution. Then, 6 mice were intra peritoneally inoculated with 0.2 mL of each line cellular suspension.
(§8) Ascitic fluid was collected 6 days after the inoculation with L1210 cells, 8 days after the inoculation with P388 ones and 18 days after inoculation with Erlich adenocarcinoma cells. Thus obtained, the samples of passaged tumor cells were used for the main experiments. The fluid liquid was dissolved by sterile Hanks' solution so that cell concentration be 5×10^6 cells/mL for P388 cells and Erlich adenocarcinoma cells, 5×10^5 cells/mL for L1210 cells.
(§9) Eleven groups of animals with no less than 15 mice each were formed for experiments with either tumor cell line. Mice were inoculated with 0.2 mL of resultant cell suspensions per mouse (10^6 P388 and Erlich adenocarcinoma cells/mouse, and 10^5 L1210 cells/mouse). 24 hours after the tumor cells inoculation, animals were given the first injections of the test articles or vehicles. The test article injections were made daily till the 14th day of the experiment or till the animal death. The volume of solutions injected comprised 0.01 mL/g body weight.
(§10) #1—intact animals receiving imitation of tumor cell inoculation (injection of normal saline) which further were treated with normal saline throughout the entire experiment;
(§11) #2—control animals, inoculated with tumor cells, which further were treated with test article vehicle (normal saline);

[1] = system: Erlich adenocarcinoma cells; test: Erlich adenocarcinoma in mice: ascitic fluid and survival (Example 14); settings: for Accumulation of ascitic (weight gain, %): Erlich adenocarcinoma
Experimental: as §6, §7, §8, §9, §10, §11

[2] = system: e-ras cell line (REF transformed with E1A and ras-oncogene); test: Number of clones of e-ras cells throughout 72-hr incubation; type: cell-based, rat
Experimental: (§1) To this end, these substances had been incubated for 72 hours with cells of rat embrional fibroblasts (REF) and the same cells, transformed with adenoviral E1A gene in complementation with ras-oncogene (e-ras cell line). Subsequent evaluation of the cellularity of experimental samples was carried out by counting the quantity of cell per milliliter (for REF cell line) or clones in dish (for e-ras cell line).
(§2) Cells were cultivated on DMEM medium supplemented with 10% fetal calf serum and […] gentamicin. Cultivation was carried out in Petri dishes.
(§3) E-ras cells were seeded at a cell density of 300 cells per 5 cm dish. 7 days after growth of e-ras cells had been started the quantity of clones was evaluated and the test articles were added into the dishes.
(§4) For the test-system for estimation of apoptosis regulation UV-induced cell death was triggered in a dose of 4 Dj. Test articles were added immediately after irradiation. Then, the quantity of cell per milliliter (for REF cell line) or clones in dish (for e-ras cell line) were monitored every 24 hours. For determination of DNA-fragmentation the electrophoresis in agarose gel was used at standard settings.

[3] = system: rat embrional fibroblasts (REF); test: Number of REF cells throughout 72-hr incubation; type: cell-based
Experimental: as §1, §2
(§5) REF cells was cultivated with initial density of 800 000 cell per mL, evaluation of the cellularity was performed at 0, 24, 48 and 72 hours of incubation with the test articles.
as §4

[4] = system: rat embrional fibroblasts (REF) after UV-irradiation; test: Number of REF cells after UV-irradiation; type: cell-based
Experimental: as §1, §2, §5, §4

[5] = system: e-ras cells after UV-irradiation; test: Number of clones of e-ras cells after UV-irradiation; type: cell-based, rat
Experimental: as §1, §2, §3, §4

NCCSSCCNC(=O)CNC(=O)C(CSSCC(NC(=O)CCC(N)C(=O)O)C(=O)NCC(=O)O)NC(=O)CCC(N)C(=O)O (stereo not shown) [S-thioethylamine-GSSG + normal saline]
Accumulation of ascitic (weight gain, %) (leukemia L1210 cells; number of injection 0): 0.77 ± 0.2% | Accumulation of ascitic (weight gain, %) (leukemia L1210 cells; number of injection 3): 3.1 ± 0.4% | Accumulation of ascitic (weight gain, %) (leukemia L1210 cells; number of injection 7): 92 ± 1.2% | Mean survival time (leukemia L1210 cells; mice inoculated with leukemia L1210 cells): 19.2 ± 0.8 | Accumulation of ascitic (weight gain, %) ([1]; number of injection 0): 0.8 ± 0.1% | Accumulation of ascitic (weight gain, %) ([1]; number of injection 3): 3.2 ± 0.6% | Accumulation of ascitic (weight gain, %) ([1]; number of injection 7): 10.2 ± 2.2% | Mean survival time ([1]; mice inoculated with Erlich adenocarcinoma cells): 16.2 ± 1.2

NCCSSCCNC(=O)CNC(=O)C(CSSCC(NC(=O)CCC(N)C(=O)O)C(=O)NCC(=O)O)NC(=O)CCC(N)C(=O)O (stereo not shown) [S-thioethylamine-GSSG in normal saline]
number of clones of e-ras cells (M ± m) ([2]; 0 hours of incubation): 286 ± 14 | number of clones of e-ras cells (M ± m) ([2]; 24 hours of incubation): 202 ± 14 | number of clones of e-ras cells (M ± m) ([2]; 48 hours of incubation): 156 ± 10 | number of clones of e-ras cells (M ± m) ([2]; 72 hours of incubation): 112 ± 12 | number of REF cells (M ± m) ([3]; 0 hours of incubation): 789 ± 21 × 10^3 cells | number of REF cells (M ± m) ([3]; 24 hours of incubation): 1422 ± 14 × 10^3 cells | number of REF cells (M ± m) ([3]; 48 hours of incubation): 2602 ± 43 × 10^3 cells | number of REF cells (M ± m) ([3]; 72 hours of incubation): 5112 ± 168 × 10^3 cells | number of REF cells after UV-irradiation (M ± m) ([4]; 0 hours): 789 ± 21 × 10^3 cells | number of REF cells after UV-irradiation (M ± m) ([4]; 24 hours): 422 ± 14 × 10^3 cells | number of REF cells after UV-irradiation (M ± m) ([4]; 48 hours): 260 ± 23 × 10^3 cells | number of REF cells after UV-irradiation (M ± m) ([4]; 72 hours): 212 ± 16 × 10^3 cells | number of clones of e-ras cells after UV-irradiation (M ± m) ([5]; 0 hours): 286 ± 14 | number of clones of e-ras cells after UV-irradiation (M ± m) ([5]; 24 hours): 182 ± 14 | number of clones of e-ras cells after UV-irradiation (M ± m) ([5]; 48 hours): 116 ± 8 | number of clones of e-ras cells after UV-irradiation (M ± m) ([5]; 72 hours): 82 ± 4

NCCSSCCNC(=O)CNC(=O)C(CSSCC(NC(=O)CCC(N)C(=O)O)C(=O)NCC(=O)O)NC(=O)CCC(N)C(=O)O (stereo not shown) [S-thioethylamine-GSSG, S-thioethylamine-glutathione disulfide]
death of transformed e-ras cells ([2]; 72-hr incubation): induce a transformed cell death | apoptosis of normal cells (REF line) ([3]; 72-hr incubation): didn't promote apoptosis of normal cells | UV-induced apoptosis of normal cells (REF line) [4]: do not promote the apoptosis of normal cells | death of transformed e-ras cells after UV-irradiation [5]: potentiate death of the transformed cells

— US6492329B1, “Cytokine and hemopoietic factor endogenous production enhancer and methods of use thereof” (Novelos Therapeutics, Inc., priority 1995, dated 2002)
